Measurements from PMC9820444, “Design and Synthesis of Acridine-Triazole and Acridine-Thiadiazole Derivatives and Their Inhibitory Effect against Cancer Cells” (International Journal of Molecular Sciences, 2022).
Where two headings read alike, the source gives them in different places. Marks after values point to notes of the source that are not given here.

Assays:
[1] = system: large cell lung cancer cells (NCI-H460); test: MTT antiproliferative assay, NCI-H460; assay type: cell-based, human; conditions: read-out: Effect against cell viability (IC50), NCI-H460
Description: (§1) All newly synthesized acridinyl derivatives (4–6) were screened for their anticancer activities in comparison to the reference compounds, 5-FU and cis-platinum. Compounds 4–6 were tested for their in vitro antitumor activities against HFF, MGC-803, BEL-7404, NCI-H460, and T24 tumor cell lines, and human normal liver cells (LO2), and the results are shown in Table 1. Most of the compounds had strong selective potency against MGC-803 and T24 cancer cells. […] In the T24 cell line assay, many compounds, especially the series of compound 4, had significant activity against T24. This implies that there is a significant increase in potency after the introduction of the aroyl thiourea group. […] To our delight, most 1,2,4-triazolethiones (5) and 1,2,4-thiadiazoles (6) have low toxicity to LO2 compared with the positive control.
(§2) Test samples, including compounds 4–6 and commercial classical anticancer drugs (5-FU and cis-platinum), were screened for their anti-cancer activity against HFF human foreskin fibroblast cells, MGC-803 human gastric cancer cells, BEL-7404 human hepatocellular carcinoma cells, NCI-H460 human large cell carcinoma cells, and T24 human bladder carcinoma cells using the 3-(4,5-dimethylthiazol-2-yl)-2,5-diphenyltetrazoliumbromide (MTT) assay method cited in the literature. The initial concentration of all the test samples was 100 μg/mL, which was serially diluted in complete medium with ten-fold dilutions to give six concentrations per compound. Their cytotoxicity was determined in 96-well flat bottomed microtiter plates. All the test samples were tested in triplicate. The results were expressed as the drug concentration that inhibited cell growth by 50% as compared to the controls (IC50). The IC50 values were calculated from regression lines obtained from the percent cell growth inhibition plotted as a function of the logarithm of the dose.

[2] = system: human gastric cancer cells-803 (MGC-803); test: MTT antiproliferative assay, MGC-803; assay type: cell-based; conditions: read-out: Effect against cell viability (IC50), MGC-803
Description: as §1, §2

[3] = system: bladder cancer cells (T24); test: MTT antiproliferative assay, T24; assay type: cell-based, human; conditions: read-out: Effect against cell viability (IC50), T24
Description: as §1, §2

[4] = system: human normal liver cells (LO2); test: Cytotoxicity against normal liver cells LO2; assay type: cell-based; conditions: MTT, read-out: Effect against cell viability (IC50), LO2
Description: as §1, §2

[5] = system: human foreskin fibroblasts (HFF); test: MTT antiproliferative assay, HFF; assay type: cell-based; conditions: read-out: Effect against cell viability (IC50), HFF
Description: as §1, §2

[6] = system: hepatocellular carcinoma bel-7404 (BEL-7404); test: MTT antiproliferative assay, BEL-7404; assay type: cell-based, human; conditions: read-out: Effect against cell viability (IC50), BEL-7404
Description: as §1, §2

[7] = system: zebrafish embryos; parameters: mortality rate of zebrafish embryos: dose or concentration left out as unconfirmed; conditions: for MAR (malformation rate) / MOR (mortality rate): zebrafish embryos 72 hpf; for total mortality and malformation rate: zebrafish embryos
Description: In this experiment, 2% DMSO was used to dissolve the target products, and the abnormal rate (MAR) and mortality rate (MOR) of zebrafish embryos (72 hpf) were used for statistics.
The zebrafish embryos were collected at 6 hpf and randomly divided into naive control (embryos maintained in distilled water), vehicle control (embryos treated with 2% DMSO), and drug groups. Stock solutions of all drugs were prepared in 2% DMSO as a solubilizing agent and diluted to three concentrations (0.5 mg/mL, 1 mg/mL, and 2 mg/mL). Each group had 20 embryos per test concentration. […] Each compound was evaluated in three independent biological experiments.

Structure (SMILES) | IC50 ([1]; Homo sapiens) [µM] | IC50 ([2]; Homo sapiens, MGC-803, MTT) [µM] | IC50 ([3]; Homo sapiens) [µM] | IC50 ([6]; Homo sapiens) [µM] | IC50 [1] [µM] | IC50 ([2]; MTT) [µM] | IC50 [3] [µM] | IC50 [4] [µM] | IC50 [5] [µM] | IC50 [6] [µM] | MAR (malformation rate) ([7]; 1 mg/mL) | MOR (mortality rate) ([7]; 1 mg/mL) | MAR (malformation rate) ([7]; 1.5 mg/mL) | MOR (mortality rate) ([7]; 1.5 mg/mL) | MAR (malformation rate) ([7]; 2 mg/mL) | MOR (mortality rate) ([7]; 2 mg/mL) | IC50 ([4]; Homo sapiens) [µM] | IC50 ([5]; Homo sapiens, Fibroblast) [µM] | further results
COc1ccc2nc3ccccc3c(NC(=S)NNC(=O)c3ccccc3)c2c1 [4b, 1-2′-methoxyl acridinyl-3-benzoyl thiosemicarbazides] | – | – | – | – | 42.3 ± 2.15 | 14.5 ± 2.06 | 29.8 ± 2.85 | 34.4 ± 2.05 | 72.6 ± 3.57 | 25.8 ± 2.83 | 70% ^a | 15% ^a | 70% ^a | 15% ^a | 55% ^a | 40% ^a | – | – | total mortality and malformation rate ([7]; 2.0 mg.L^−1): 100%
COc1ccc(C(=O)NNC(=S)Nc2c3ccccc3nc3ccc(OC)cc23)cc1 [4c, 1-2′-methoxyl acridinyl-3-4′-methoxy benzoyl thiosemicarbazides] | – | – | – | – | 52.4 ± 3.67 | 21 ± 1.55 | 11.2 ± 2.51 | 19.4 ± 1.69 | 63.7 ± 2.59 | 13.3 ± 1.37 | 50% ^a | 45% ^a | 60% ^a | 25% ^a | 50% ^a | 35% ^a | – | – | –
COc1ccc2nc3ccccc3c(NC(=S)NNC(=O)c3ccc([N+](=O)[O-])cc3)c2c1 [4d, 1-2’-methoxyl acridinyl-3-4′-nitro benzoyl thiosemicarbazides] | – | – | – | – | 40.5 ± 4.52 | 35 ± 3.57 | 13 ± 1.64 | 25.1 ± 1.33 | 65.3 ± 3.82 | 43.9 ± 2.59 | – | – | – | – | – | – | – | – | –
Cc1ccc2[nH]c3ccccc3c(=NC(=S)NNC(=O)c3ccncc3)c2c1 [4f, 1-2′-methyl acridinyl-3-4′-pyridinamide thiourea] | – | – | – | – | 53.7 ± 3.04 | 11.2 ± 0.96 | 9.66 ± 1.54 | 10.1 ± 0.96 | 55.2 ± 1.36 | 34.4 ± 2.24 | 60% ^b | 10% ^b | 80% ^b | 20% ^b | 15% ^b | 85% ^b | – | – | total mortality and malformation rate ([7]; 2.0 mg.L^−1): 100%
Cc1ccc2nc3ccccc3c(NC(=S)NNC(=O)c3ccccc3)c2c1 [4g, 1-2′-methyl acridinyl-3-benzoyl thiosemicarbazides] | – | – | – | – | 39 ± 2.05 | 13.5 ± 1.59 | 25.8 ± 1.51 | 14.3 ± 1.52 | 70.1 ± 3.97 | 20.2 ± 4.13 | – | – | – | – | – | – | – | – | –
Cc1ccc2nc3ccccc3c(NC(=S)NNC(=O)c3ccc([N+](=O)[O-])cc3)c2c1 [4i, 1-2′-methyl acridinyl-3-4’-nitro benzoyl thiosemicarbazides] | – | – | – | – | 60.4 ± 2.95 | 22.3 ± 1.35 | 9.89 ± 1.45 | 11.8 ± 1.38 | 60.7 ± 2.31 | 23.3 ± 1.33 | – | – | – | – | – | – | – | – | –
Cc1ccc2nc3ccccc3c(NC(=S)NNC(=O)c3ccc(Cl)cc3)c2c1 [4j, 1-2′-methyl acridinyl-3-4′-chloro benzoyl thiosemicarbazides] | – | – | – | – | 32.2 ± 2.36 | 16.4 ± 1.56 | 19.9 ± 1.32 | 20.5 ± 1.39 | 61.5 ± 1.85 | 24.4 ± 3.53 | – | – | – | – | – | – | – | – | –
O=c1[nH]cc(F)c(=O)[nH]1 [5-FU, 5-fluorouracil, reference compound] | 44 ± 0.54 | 30.4 ± 2.87 | 32 ± 1.23 | 34.5 ± 1.18 | – | – | – | – | – | – | – | – | – | – | – | – | 40.1 ± 1.65 | 25.4 ± 1.27 | –
COC1=CC2C(=Nc3nnc(-c4ccncc4)s3)c3ccccc3NC2C=C1 (stereo not drawn) [6a, 7-methoxy-N-(5-(pyridin-4-yl)-1,3,4-thiadiazol-2-yl)-10,10a-dihydroacridin-9(8aH)-imine] | 25.3 ± 3.57 | 14.3 ± 1.29 | 10.2 ± 0.96 | 19.2 ± 1.3 | – | – | – | – | – | – | 15% ^b | 0% | 95% ^b | 0% | 90% ^b | 5% ^b | 40.2 ± 2.74 | 68.8 ± 1.87 | –
COC1=CC2C(=Nc3nnc(-c4ccc(Cl)cc4)s3)c3ccccc3NC2C=C1 (stereo not drawn) [6e, 7-methoxy-N-(5-(4-chlorophenyl)-1,3,4-thiadiazol-2-yl)-10,10a-dihydroacridin-9(8aH)-imine] | 27.9 ± 3.97 | 9.95 ± 1.03 | 14.9 ± 1.3 | 21.3 ± 2.81 | – | 9.01 ± 1.32 | – | – | – | – | 10% ^c | 10% ^c | 70% ^c | 30% ^c | 35% ^c | 65% ^c | 33.6 ± 2.01 | 44.7 ± 1.44 | –
CC1=CC2C(=Nc3nnc(-c4ccc([N+](=O)[O-])cc4)s3)c3ccccc3NC2C=C1 (stereo not drawn) [6i, 7-methyl-N-(5-(4-nitrophenyl)-1,3,4-thiadiazol-2-yl)-10,10a-dihydroacridin-9(8aH)-imine] | 36.4 ± 3.15 | 22.9 ± 1.85 | 29.9 ± 2.45 | 43.7 ± 2.36 | – | – | – | – | – | – | 0% | 0% | 10% ^b | 0% | 25% ^c | 0% | > 100 | 92 ± 2.99 | mortality rate of zebrafish embryos [7]: 0%; malformation rate of zebrafish embryos ([7]; 2.0 mg.L^−1): 25%
N.N.[Cl][Pt][Cl] [cis-platinum, reference compound] | – | – | – | – | 7.13 ± 1.24 | 16 ± 1.53 | 9.13 ± 1.54 | 21.4 ± 1.25 | 10.8 ± 0.34 | 10 ± 0.52 | – | – | – | – | – | – | – | – | –

Continued, in another order:

IC50 ([1]; Homo sapiens) [µM] | IC50 ([2]; Homo sapiens, MGC-803, MTT) [µM] | IC50 ([3]; Homo sapiens) [µM] | IC50 ([6]; Homo sapiens) [µM] | Structure (SMILES) | IC50 [1] [µM] | IC50 ([2]; MTT) [µM] | IC50 [3] [µM] | IC50 [4] [µM] | IC50 [5] [µM] | IC50 [6] [µM] | MAR (malformation rate) ([7]; 1 mg/mL) | MOR (mortality rate) ([7]; 1 mg/mL) | MAR (malformation rate) ([7]; 1.5 mg/mL) | MOR (mortality rate) ([7]; 1.5 mg/mL) | MAR (malformation rate) ([7]; 2 mg/mL) | MOR (mortality rate) ([7]; 2 mg/mL) | IC50 ([4]; Homo sapiens) [µM] | IC50 ([5]; Homo sapiens, Fibroblast) [µM] | further results
36.5 ± 2.96 | 22.4 ± 1.32 | 21.2 ± 2.72 | 22.1 ± 2.72 | COc1ccc2nc3ccccc3c(-n3c(-c4ccncc4)n[nH]c3=S)c2c1 [5a, 4-(2-methoxyacridin-9-yl)-5-(pyridin-4-yl)-2,4-dihydro-3H-1,2,4-triazole-3-thione] | – | – | – | – | – | – | – | – | – | – | – | – | 42 ± 2.31 | 74.5 ± 4.03 | melting point: 272 to 273 °C
42.1 ± 3.74 | 15.8 ± 1.94 | 22.1 ± 1.85 | 27.7 ± 2.97 | COc1ccc2nc3ccccc3c(-n3c(-c4ccccc4)n[nH]c3=S)c2c1 [5b, 4-(2-methoxyacridin-9-yl)-5-phenyl-2,4-dihydro-3H-1,2,4-triazole-3-thione] | – | – | – | – | – | – | – | – | – | – | – | – | 58.3 ± 3.25 | 53.6 ± 2.78 | melting point: 259 to 261 °C
58.8 ± 3.22 | 15.2 ± 1.08 | 15.7 ± 1.58 | 44.2 ± 2.68 | Cc1ccc2nc3ccccc3c(-n3c(-c4ccncc4)n[nH]c3=S)c2c1 [5f, 4-(2-methylacridin-9-yl)-5-(pyridin-4-yl)-2,4-dihydro-3H-1,2,4-triazole-3-thione] | – | – | – | – | – | – | – | – | – | – | – | – | 46.8 ± 2.93 | 69.2 ± 2.16 | melting point: 264 to 268 °C
30.6 ± 2.21 | – | 19.4 ± 2.17 | 20.5 ± 1.13 | Cc1ccc2nc3ccccc3c(-n3c(-c4ccccc4)n[nH]c3=S)c2c1 [5g, 4-(2-methylacridin-9-yl)-5-phenyl-2,4-dihydro-3H-1,2,4-triazole-3-thione] | – | – | – | – | – | – | – | – | – | – | – | – | 44.6 ± 2.35 | 68.3 ± 2.74 | melting point: 292 to 293 °C
28.3 ± 1.32 | 8.92 ± 0.99 | 14.3 ± 1.27 | 31.7 ± 2.36 | Cc1ccc2nc3ccccc3c(-n3c(-c4ccc([N+](=O)[O-])cc4)n[nH]c3=S)c2c1 [5i, 4-(2-methylacridin-9-yl)-5-(4-nitrophenyl)-2,4-dihydro-3H-1,2,4-triazole-3-thione] | – | – | – | – | – | – | – | – | – | – | – | – | > 100 | 70.9 ± 2.99 | melting point: 245 to 247 °C
